IC50 data for 22 compounds are collected here from US20250032454A1, “KDM1A INHIBITORS FOR THE TREATMENT OF DISEASE” (Imago Biosciences, Inc., priority 2021, published 2025).

In one assay the target is LSD1 (Homo sapiens, UniProt O60341). As to the kind of experiment: LSD1 fluorescence coupling enzyme assay (HRP/Amplex Red, H3(1-21)K4me2 peptide), 10-dose IC50. The conditions noted are these: 10 μM histone H3(1-21)K4me2 peptide substrate, 3-fold serial dilution from 100 μM. It is filed as biochemical. The source says:
Assaying the inhibition of KDM1A can be determined in vitro, in cultured cells, and in animals. There are a variety of spectrophotometric methods to detect the results of demethylation of methylated lysines, viz., detecting the products of KDM1A demethylase oxidative activity on a peptide fragment of at least 18 amino acids representing the N-terminus of the histone H3 substrate that contains a monomethyl at the fourth lysine residue. Hydrogen peroxide, one product of the KDM1A demethylase reaction, reacts with horseradish peroxidase and dihydroxyphenoxazine (ADHP) to produce the fluorescent compound resorufin (excitation=530-560 nm: emission=590 nm). The KDM1A demethylase enzyme activity can be obtained from mammalian cells or tissues expressing KDM1A from an endogenous or recombinant gene and purified or assayed from a whole cell extract. These methods can be used to determine the concentration of the disclosed compounds can inhibit fifty percent of the enzyme activity (IC50).
Alternatively, the production of H2O2 during the KDM1A reaction can be detected fluometrically. In this system, the production of H2O2 is detected in the HDM assay buffer after exposure to substrate, co-factor and enzyme using ADHP (10-Acetyl-3, 7-dihydroxyphenoxazine) as a fluorogenic substrate for horse radish peroxidase (HRP). […] The florescent product is resorufin. Sensitivity can be as low as 10-15 M of target protein. The signal is read using a fluorescence microplate reader at excitation and emission wavelengths of 530-560 nm and 590 nm, respectively.
Compounds were tested in a 10-dose IC50 mode fluorescence coupling enzyme assay with 3-fold serial dilution in duplicate starting at 100 μM. The production of FAD-dependent H2O2 as a result of demethylase activity of LSD1 on 10 μM histone H3(1-21)K4me2 peptide substrate was measured by coupling with HRP and Amplex Red to yield resorufin (fluorescence measured at Ex/Em=535/590 nm on EnVision, Perkin Elmer).

The next assay relates to MV4;11 cells. Briefly: Cell Titer-Glo cell growth inhibition in MV4;11 cell line (Day 5 / Day 10). Type of assay: cell-based. How it is done: Cell growth inhibition against MV4;11 cells was confirmed for the synthetic compounds. The Cell Titer-Glo Luminescent Cell Viability Assay (Promega, USA) was used to determine the number of viable cells in culture based on quantitation of the ATP present, which signals the presence of metabolically active cells. This assay was run in a 96-well plate format arrayed in a 10-point dose curve, ranging from 0 to 50 µM with 4-fold dilutions for each compound. Cells are seeded on Day 0 at 3750 cells per well. At Day 5, a portion of each well is assayed for viability according to the Cell Titer-Glo protocol. Briefly, cells/plates were centrifuged at 1100×g for 5 minutes. 100 μL of media was removed from each well and replaced with 100 μL of CellTiter-Glo. The plates were shaken at room temperature for 10 minutes and measured on a luminescence plate reader. Another portion of each well from the Day 5 plate is used to seed a new 96 plate containing fresh compound and media set up in the equivalent 10-point dose curve array in order to continue the cell growth inhibition assay for another 5 days. A final timepoint is collected at Day 10 using the Cell Titer-Glo protocol. Luminescence was detected on an En Vision® Multilabel Plate Reader (Perkin Elmer, Waltham, Mass.) and IC50 determination was made using Graph Pad Prism software.
A general note: ATP-based viability assays read luminescence as a measure of living cells.

Where [1] appears, read: Homo sapiens, MV4-11, 120 h, Day 5, read-out: Cell Titer-Glo IC50 (5 d).
The mark [2] stands for this setting: Homo sapiens, MV4-11, 240 h, Day 10, read-out: Cell Titer-Glo IC50 (10 d).

Read-outs that look alike come from different tables or passages of the source.

A word on the IC50: it is the point on the concentration scale where inhibition reaches its midpoint.

For the compound `N#Cc1ccc(-c2cc(NC[C@H]3CCCNCC3)nn2-c2ccc(N3CCN(CCO)CC3)cc2)cc1F` (single isomer, unassigned) [Example 27b], the IC50 against LSD1, in the assay on MV4;11 cells (setting [1]) and in the assay on MV4;11 cells (setting [2]) was less than 500 nM throughout. Consider `Cn1nc2ccc(-n3nc(NC[C@H]4CCC[C@H](N)C4)cc3-c3ccc(C#N)c(F)c3)cc2c1Cl` [Example 14SS, 4-(3-((((1S,3S)-3-aminocyclohexyl)methyl)amino)-1-(3-chloro-2-methyl-2H-indazol-5-yl)-1H-pyrazol-5-yl)-2-fluorobenzonitrile], for which the IC50 against LSD1 and in the assay with MV4;11 cells (setting [2]) was less than 500 nM throughout. `N#Cc1ccc(-c2cc(NC[C@@H]3CCCNCC3)nn2-c2ccc(N3CCCC3)cc2)cc1F` (single isomer, unassigned) [Example 24a]: the IC50 at LSD1, in the assay on MV4;11 cells (setting [1]) and in the assay with MV4;11 cells (setting [2]) was less than 500 nM each time. `CN1CCN(c2cccc(-n3nc(NC[C@H]4CCC[C@H](N)C4)cc3-c3ccc(C#N)c(F)c3)c2)CC1` [Example 45, 4-(3-((((1S,3S)-3-aminocyclohexyl)methyl)amino)-1-(3-(4-methylpiperazin-1-yl)phenyl)-1H-pyrazol-5-yl)-2-fluorobenzonitrile]: the figures for the IC50 against LSD1, with MV4;11 cells (setting [1]) and in the assay with MV4;11 cells (setting [2]) were 1000 to 10000 nM, 500 to 1000 nM and less than 500 nM, respectively. For `CS(=O)(=O)n1cc(-c2cccc(-n3nc(NC[C@H]4CCC[C@H](N)C4)cc3-c3ccc(C#N)c(F)c3)c2)cn1` [Example 60, 4-(3-((((1S,3S)-3-aminocyclohexyl)methyl)amino)-1-(3-(1-(methylsulfonyl)-1H-pyrazol-4-yl)phenyl)-1H-pyrazol-5-yl)-2-fluorobenzonitrile], the IC50 was 1000 to 10000 nM against LSD1, 1000 to 10000 nM in the assay with MV4;11 cells (setting [1]) and less than 500 nM in the assay with MV4;11 cells (setting [2]). `COc1ccc(-n2nc(NCC3CCCNCC3)cc2-c2ccc(C#N)c(F)c2)cc1` (centres unmarked) [Example 22, 4-(3-((azepan-4-ylmethyl)amino)-1-(4-methoxyphenyl)-1H-pyrazol-5-yl)-2-fluorobenzonitrile]: the half-maximal inhibitory concentration (IC50) at LSD1 is less than 500 nM; with MV4;11 cells (setting [1]) it was 1000 to 10000 nM; in the assay on MV4;11 cells (setting [2]), less than 500 nM. In the case of “(R)-4-(3-(3-aminopiperidin-1-yl)-1-(p-tolyl)-1H-pyrazol-5-yl)-2-fluorobenzonitrile/(R)-4-(5-(3-aminopiperidin-1-yl)-1-(p-tolyl)-1H-pyrazol-3-yl)-2-fluorobenzonitrile [Example 38]”, the IC50 is less than 500 nM against LSD1 and 1000 to 10000 nM in the assay on MV4;11 cells (Day 5, read-out: Cell Titer-Glo IC50 (5 d)). `CN[C@H]1CCCC(CNc2cc(-c3ccc(C#N)c(F)c3)n(-c3ccc(OC)cc3)n2)C1` (single isomer, unassigned) [Example 32a]: the IC50 against LSD1 is less than 500 nM; in the assay with MV4;11 cells (setting [1]), 1000 to 10000 nM. The compound `COc1ccc(-n2nc(NC[C@@H]3CCC[C@H](CN)C3)cc2-c2ccc(C#N)c(F)c2)cc1` [Example 79, 4-(3-((((1R,3S)-3-(aminomethyl)cyclohexyl)methyl)amino)-1-(4-methoxyphenyl)-1H-pyrazol-5-yl)-2-fluorobenzonitrile] yielded an IC50 at LSD1 of 1000 to 10000 nM. For `N#Cc1ccc(-c2cc(NC[C@H]3CCC[C@H](N)C3)nn2-c2ccc(N3CCC4(CCCO4)CC3)cc2)cc1F` [Example 95, 4-(1-(4-(1-Oxa-8-azaspiro[4.5]decan-8-yl)phenyl)-3-((((1S,3S)-3-aminocyclohexyl)methyl)amino)-1H-pyrazol-5-yl)-2-fluorobenzonitrile 2,2,2-trifluoroacetate], at LSD1, the IC50 was less than 500 nM. Take `N#Cc1ccc(-c2cc(NC[C@@H]3CCC[C@@H](N)C3)nn2-c2ccc(N3CCSCC3)cc2)cc1F` [Example 100, 4-(3-((((1R,3R)-3-aminocyclohexyl)methyl)amino)-1-(4-thiomorpholinophenyl)-1H-pyrazol-5-yl)-2-fluorobenzonitrile]: the half-maximal inhibitory concentration (IC50) on LSD1 is less than 500 nM. Regarding `CN(c1ccc(-n2nc(NC[C@H]3CCC[C@H](N)C3)cc2-c2ccc(C#N)c(F)c2)cc1)C1CCOCC1` [Example 93, 4-(3-((((1S,3S)-3-aminocyclohexyl)methyl)amino)-1-(4-(methyl(tetrahydro-2H-pyran-4-yl)amino)phenyl)-1H-pyrazol-5-yl)-2-fluorobenzonitrile 2,2,2-trifluoroacetate], the half-maximal inhibitory concentration (IC50) at LSD1 was less than 500 nM. On to `COc1cc(N2CCS(=O)(=O)CC2)ccc1-n1nc(NC[C@H]2CCCNCC2)cc1-c1ccc(C#N)c(F)c1` [Example 112, (S)-4-(3-((azepan-4-ylmethyl)amino)-1-(4-(1,1-dioxidothiomorpholino)-2-methoxyphenyl)-1H-pyrazol-5-yl)-2-fluorobenzonitrile 2,2,2-trifluoroacetate], for which the IC50 against LSD1 is less than 500 nM. Turning to `CN1CCN(c2ccc(-n3nc(NC[C@H]4CCC[C@H](N)C4)cc3-c3ccc(C#N)c(F)c3)cc2)CC1=O` [Example 105, 4-(3-((((1S,3S)-3-aminocyclohexyl)methyl)amino)-1-(4-(4-methyl-3-oxopiperazin-1-yl)phenyl)-1H-pyrazol-5-yl)-2-fluorobenzonitrile], the IC50 at LSD1 lay within 1000 to 10000 nM. Compound `COC1CCN(c2ccc(-n3nc(NC[C@H]4CCC[C@H](NC(=N)N)C4)cc3-c3ccc(C#N)c(F)c3)cc2)CC1` [Example 128, 1-((1S,3S)-3-(((5-(4-cyano-3-fluorophenyl)-1-(4-(4-methoxypiperidin-1-yl)phenyl)-1H-pyrazol-3-yl)amino)methyl)cyclohexyl)guanidine] gave an IC50 at LSD1 of less than 500 nM. As for `CN1CCN(c2ccc(-n3nc(NC[C@H]4CCC[C@H](N)C4)cc3-c3ccc(C#N)c(F)c3)c(F)c2)CC1=O` [Example 109, 4-(3-((((1S,3S)-3-aminocyclohexyl)methyl)amino)-1-(2-fluoro-4-(4-methyl-3-oxopiperazin-1-yl)phenyl)-1H-pyrazol-5-yl)-2-fluorobenzonitrile], the IC50 at LSD1 was less than 500 nM. In turn, `COC1(C)CCN(c2ccc(-n3nc(NC[C@H]4CCC[C@H](N)C4)cc3-c3ccc(C#N)c(F)c3)cc2)CC1` [Example 102, 4-(3-((((1S,3S)-3-aminocyclohexyl)methyl)amino)-1-(4-(4-methoxy-4-methylpiperidin-1-yl)phenyl)-1H-pyrazol-5-yl)-2-fluorobenzonitrile 2,2,2-trifluoroacetate] yielded a 50% inhibitory concentration (IC50) against LSD1 of less than 500 nM. As to `COc1ccc(-n2nc(NC[C@H]3CCC[C@H](CN)C3)cc2-c2ccc(C#N)c(F)c2)cc1` [Example 80, 4-(3-((((15,3S)-3-(aminomethyl)cyclohexyl)methyl)amino)-1-(4-methoxyphenyl)-1H-pyrazol-5-yl)-2-fluorobenzonitrile], the IC50 at LSD1 fell in the range of 500 to 1000 nM. With `CC(C)Oc1cc(N2CCS(=O)(=O)CC2)ccc1-n1nc(NCC23CCN(CC2)CC3)cc1-c1ccc(C#N)c(F)c1` [Example 122, 4-(1-(4-(1,1-Dioxidothiomorpholino)-2-isopropoxyphenyl)-3-((quinuclidin-4-ylmethyl)amino)-1H-pyrazol-5-yl)-2-fluorobenzonitrile 2,2,2-trifluoroacetate], at LSD1, the IC50 lay within 1000 to 10000 nM. On to `N#Cc1ccc(-c2cc(NC[C@H]3CCC[C@H](N)C3)nn2-c2ccc3c(c2)NCCO3)cc1F` [Example 119, 4-(3-((((1S,3S)-3-aminocyclohexyl)methyl)amino)-1-(3,4-dihydro-2H-benzo[b][1,4]oxazin-6-yl)-1H-pyrazol-5-yl)-2-fluorobenzonitrile 2,2,2-trifluoroacetate], for which the IC50 at LSD1 is less than 500 nM.

As to `N#Cc1ccc(-c2cc(NC[C@H]3CCC[C@H](N)C3)nn2-c2ccc(N3CCSCC3)cc2)cc1F` [Example 99, 4-(3-((((1S,3S)-3-aminocyclohexyl)methyl)amino)-1-(4-thiomorpholinophenyl)-1H-pyrazol-5-yl)-2-fluorobenzonitrile], at LSD1, the IC50 was less than 500 nM. `N#Cc1ccc(-c2cc(NC[C@H]3CCC[C@H](N)C3)nn2-c2ccc(N3CCC(O)CC3)cc2)cc1F` [Example 89, 4-(3-((((1S,3S)-3-aminocyclohexyl)methyl)amino)-1-(4-(4-hydroxypiperidin-1-yl)phenyl)-1H-pyrazol-5-yl)-2-fluorobenzonitrile]: the concentration for half-maximal inhibition (IC50) against LSD1 is less than 500 nM.
